Data: ChEMBL document CHEMBL3870346, “Development of a simple proton nuclear magnetic resonance-based procedure to estimate the approximate distribution coefficient at physiological pH (logD7.4): Evaluation and comparison to existing practices” (Bioorg Med Chem Lett, 2017)
Counter-ions that a name gives are not always drawn.

Key:
physchem [1] = details: buffer, pH 7.4
physchem [2] = details: 1-octanol/D2O, pH 7.4
[3] = n-Octanol/water partition coefficient, log P of the compound by HPLC method

SMILES	logD (physchem [1])	logD (physchem [2])	logP ([3]; octanol/water)	logP ([3]; n-octanol/water)
CC(=O)Nc1ccccc1 [ACETANILIDE]	1.2	0.7	1	–
CC(=O)c1ccccc1 [ACETOPHENONE]	–	1.7	–	–
COC(=O)c1ccccc1 [METHYL BENZOATE]	–	1.9	–	–
N#Cc1ccccc1 [BENZONITRILE]	–	1.6	–	1.6
CCOC(=O)c1ccccc1 [ETHYL BENZOATE]	–	2.4	–	–
CC(=O)Nc1ccc(O)cc1 [ACETAMINOPHEN]	–	0.2	–	–
c1ccc2ccccc2c1	3.4	–	–	–
Oc1ccccc1 [PHENOL]	1.3	1.2	–	–
COc1ccc(O)cc1 [MEQUINOL]	1.3	0.8	–	1.3
Cc1ccc(O)cc1 [p-CRESOL]	1.8	2	1.9	–
c1ccc(-c2ccccc2)cc1 [BIPHENYL]	4	–	4	–
O=[N+]([O-])c1ccccc1O [NITROPHENOLATE]	–	1.5	–	1.8
CCC(C)=O [BUTANONE]	0.3	0.4	–	0.3
Clc1ccccc1 [CHLOROBENZENE]	2.9	2.6	–	2.8
CCN(CC)CCOC(=O)c1ccc(N)cc1 [PROCAINE HYDROCHLORIDE]	–	-0.4	–	–
c1ccc2c(c1)ccc1ccccc12	4.5	–	–	4.5
c1ccc(Oc2ccccc2)cc1	–	3.5	–	–
Nc1ccc(Cl)cc1 [4-CHLOROANILINE]	–	1.8	–	–
Cc1ccc(CO)cc1	1.8	1.4	–	1.6
OCc1ccccc1 [BENZYL ALCOHOL]	–	0.9	–	–
COc1ccccc1 [ANISOLE]	2.3	2.3	–	–
